Assay results reported in patent US20130005710A1, “AMINOPYRIDINE DERIVATIVE” (priority 2009, published 2013).

Key:
[1] = test system: Tg2576 mice; experiment: Cognitive function improving effect in novel object recognition test; assay type: in vivo, mouse; details: 10 mg/kg/day orally for 3 consecutive weeks, female Tg2576 mice; recovery ratio relative to wild type and vehicle
Description: Eight- to 9-month-old female Tg2576 mice were used, and wild-type littermates were used as control mice. All the mice were raised in a room having a temperature of 23±3° C. and 12-hour light/dark cycles (light phase: 7 a.m. to 7 p.m.) and allowed to freely take food (Oriental Yeast Co., Ld.) and water.
The body weights and blood glucose levels of the Tg2576 mice were measured, and these mice were divided (n=11-15) so that there was no difference among groups. 10 mg/kg/day compound or vehicle (0.5% methylcellulose solution, Wako Pure Chemical Industries, Ltd.) was orally administered to each mouse for 3 consecutive weeks. The following novel object recognition test was conducted (acquisition trial and retention trial were carried under blind): 4 or 5 mice in one cage were placed in a box of 30×30×30 cm and acclimatized for 30 minutes in the absence of objects. On the next day, two identical objects were placed in diagonally opposite corners of the box. The mice were placed in the box, and the time spent exploring the objects for 5 minutes was recorded (acquisition trial). 24 hours later, one of the objects was in turn replaced by a novel one, and the same test as the acquisition trial was conducted (retention trial). During the test, places were appropriately changed between the two objects to minimize environmental/behavioral psychological factors. The ratio of the time spent exploring the novel object to the whole exploring time was calculated as an index showing cognitive functions and used as preference index (PI). Furthermore, a recovery ratio was calculated according to the following formula:
[Recovery ratio]=[[PI of Tg2576 mice treated by each compound]−[PI of Tg2576 mice treated by vehicle]]/[[PI of wild type mice]−[PI of Tg2576 mice treated by vehicle]]×100(%).
In this context, individuals that explored neither of the objects in the acquisition trial and the retention trial were excluded from this test.

[2] = test system: rat mixed glial culture; experiment: Neurogenesis promoting effect in rat mixed glial culture (neuronal differentiation, beta-tubulin III ELISA); assay type: cell-based; details: Rattus norvegicus, 72 h, 1 μM compound + rhIGF-1 100 ng/ml, 3 days; control (only rhIGF-1) = 100%; absorbance 450 nm; read-out: Ratio of absorbance of compound-supplemented group to control (%)
Description: The hippocampus and the cerebral cortex were excised from each of 3-day-old SD rats. A cell suspension was prepared therefrom using a neuron dispersion kit (Sumitomo Bakelite Co., Ltd., MB-X9901) and inoculated at concentration of 10^5 cells/well to a 96-well plate coated with type I collagen (AGC Techno Glass Co., Ltd., 4860-010). The cells were cultured in a growth medium (D-MEM/F12 containing 10% FBS and PS) at 37° C. for 4 days under 5% CO2 conditions.
After the culture, the medium was replaced by a differentiation medium (D-MEM/F12 containing PS), and rhIGF-1 (R&D Systems, 291-G1-250, final concentration: 100 ng/ml) and 1 μM compound were added thereto. The cells were further cultured for 3 days. The cultured cells were fixed in 4% paraformaldehyde-PBS (Muto Pure Chemicals Co., Ltd.), subjected to membrane permeation treatment with 0.1% Triton X-100 PBS, and blocked with Block Ace solution (DS Pharma Biomedical Co., Ltd., UK-B80). Anti-neuron-specific class III beta-tubulin Antibody (R&D Systems, MAB1195, clone Tuj-1) was diluted 1000-fold and used as a primary antibody. Anti-Mouse Ig, HRP-Linked F(ab′)2 Fragment Sheep (GE Healthcare, NA9310) was diluted 10000-fold and used as a secondary antibody. A plate washer (BIO-TEK INSTRUMENTS ELX405) was used in washing operation. TMB Microwell Peroxidase Substrate System (Kirkegaard & Perry Laboratories, 50-76-00) was used in color reaction, which was performed for 10 minutes and stopped by addition of 1 M phosphoric acid. Absorbance at 450 nm was measured using a plate reader (Labsystems Multiskan BICHROMATIC).
The rate of increase in the absorbance of the compound-supplemented group (compound+rhIGF-1) relative to that of a compound-unsupplemented group (control, only rhIGF-1) as 100% was determined in terms of % control.

[3] = test system: Akt; experiment: Akt protein degradation inhibitory effect in rat mixed glial culture (Western blot); assay type: cell-based; details: 1 μM compound + rhIGF-1 100 ng/ml, 10 minutes; unsupplemented = 100%, only rhIGF-1 = 0%; Akt corrected with ERK
Description: The mixed glial cells used in Experimental Example 1 were inoculated at a concentration of 4×10^6 cells/well to a 6-well plate coated with type I collagen (AGC Techno Glass Co., Ltd.). The cells were cultured in a growth medium (D-MEM/F12 containing 10% FES and PS) at 37° C. for 4 days under 5% CO2 conditions. Then, the medium was replaced by a serum-free medium (D-MEM/F12 containing PS), and the cells were cultured at 37° C. for 4 days under 5% CO2 conditions to remove serum.
Next, rhIGF-1 (R&D Systems, 291-G1-250, final concentration: 100 ng/ml) and 1 μM compound were added thereto and reacted for 10 minutes in a temperature-controlled water bath set to 37° C. […]
Proteins were collected from the cell extracts using trichloroacetic acid and quantified according to the Lowry method. […] The cell extracts were diluted with RIPA so that the protein levels were constant among the test solutions on the basis of the measured values (10 μg/lane). […] Bands were detected using ImmunoStar reagent (Wako Pure Chemical Industries, Ltd., 291-55203) and an X-ray film. The results were quantified using GS-800 Calibrated Densitometer manufactured by Bio-Rad Laboratories, Inc., and band intensity was digitized by multiplying the absorbance of the Akt- or ERK-1&2-derived band by an area. […]

SMILES	Preference index (% recovery) [1] [%]	activity at 1 µM [2] [%]	Akt degradation inhibitory rate (%) [3] [%]
COc1ccc(N2CCN(c3ccc(F)cc3)CC2)c(-c2ccc(N(C)C)cc2)n1 [Example 12, 4-{3-[4-(4-fluorophenyl)piperazin-1-yl]-6-methoxypyridin-2-yl}-N,N-dimethylaniline]	70.3	345	
COc1ccc(N2CCN(c3ccc(OC)nc3-c3ccc(N(C)C)cc3)CC2)cc1 [Example 19, 4-{6-methoxy-3-[4-(4-methoxyphenyl)piperazin-1-yl]pyridin-2-yl}-N,N-dimethylaniline]	118.2	263	97
COc1ccc(N2CCN(c3ccc(C)cc3)CC2)c(-c2ccc(N(C)C)cc2)n1 [Example 25, 4-{6-methoxy-3-[4-(4-methylphenyl)piperazin-1-yl]pyridin-2-yl}-N,N-dimethylaniline]	97.0	276	140
CCOc1ccc(-c2nc(OC)ccc2N2CCN(c3ccc(OC)cc3)CC2)cc1 [Example 55, 1-[2-(4-ethoxyphenyl)-6-methoxypyridin-3-yl]-4-(4-methoxyphenyl)piperazine]	19.8	316	
COc1ccc(N2CCN(c3ccc(OC)nc3-c3ccc(N4CCOCC4)cc3)CC2)cc1 [Example 174, 4-(4-{6-methoxy-3-[4-(4-methoxyphenyl)piperazin-1-yl]pyridin-2-yl}phenyl)morpholine]		390	
